Reference: article PMC10962963 (Proceedings of the National Academy of Sciences of the …, 2024)
Values belong to the molecule of their own block, whether it stands above or below them.

How the values were obtained:
[1] = target: T1, polycystin-2 (PC2, TRPP2), PC2_F604P (Homo sapiens, UniProt Q13563, F604P); assay: cryo-EM structure; type: cell-based
T1 sequence (Q13563 185-719 F604P): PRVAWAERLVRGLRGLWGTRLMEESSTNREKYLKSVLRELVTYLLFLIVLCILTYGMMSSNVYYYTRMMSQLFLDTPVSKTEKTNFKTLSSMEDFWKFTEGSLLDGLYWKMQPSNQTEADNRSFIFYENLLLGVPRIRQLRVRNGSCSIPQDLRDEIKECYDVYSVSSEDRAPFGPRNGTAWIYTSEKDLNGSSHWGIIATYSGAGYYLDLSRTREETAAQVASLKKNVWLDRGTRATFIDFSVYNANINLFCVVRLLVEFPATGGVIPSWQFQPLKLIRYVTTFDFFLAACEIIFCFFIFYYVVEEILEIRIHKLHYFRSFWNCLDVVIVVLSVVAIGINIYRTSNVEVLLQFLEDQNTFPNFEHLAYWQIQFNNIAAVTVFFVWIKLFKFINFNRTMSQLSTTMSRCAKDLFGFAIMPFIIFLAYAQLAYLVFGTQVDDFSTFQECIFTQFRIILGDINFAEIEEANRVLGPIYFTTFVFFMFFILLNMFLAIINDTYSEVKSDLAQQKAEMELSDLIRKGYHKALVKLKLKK

cryo-EM structure = target: the molecule itself; assay: cryo-EM structure

EC50 [1]: 5.2 µM
Molecule: CC1CC(C)(C)N(C(=O)CN2C(=O)c3ccccc3C2=O)c2ccccc21 (centres unmarked) [ML-SA1]

B1: truncated PC2_F604P protein containing the fragment Pro185-Lys719 (domain or fragment, human, UniProt Q13563 185-719, looked up)
chain: T1 sequence (Q13563 185-719 F604P)
binding result (cryo-EM structure): binds
